A short description of test [1]: Flavor evaluation in water by a trained sensory panel, 9-point hedonic scale. The settings on record: for Flavor Intensity: 9-point hedonic scale. Here is the method: The flavor properties of 2-ethyl-4-methyl-2,5-dihydro-thiazole (Formula I), 4-ethyl-2-methyl-3-thiazole (Formula II), and 4-methyl-2-propyl-2,5-dihydro-thiazole (Formula III) in water were evaluated by a trained sensory panel using the 9-point hedonic scale.

Test [2] is described as follows: Flavor description in water. The settings on record: 1 ppb.
The nature of test [3]: Flavor evaluation in an oatmeal sample. To be noted: plain instant oatmeal. The protocol:
The flavor properties of 2-ethyl-4-methyl-2,5-dihydro-thiazole were evaluated in an oatmeal sample. Commercially available plain instant oatmeal was used whose ingredients included whole grain rolled oats, calcium carbonate, salt, guar gum, caramel color, reduced iron, niacinamide, vitamin A, palmitate, pyridoxine, hydrochloride, riboflavin, thiamin mononitrate, and folic acid.

The nature of test [4]: Flavor evaluation in a soft drink sample (orange soda). The settings on record: 5 ppb. Here is the method: The flavor properties of 2-ethyl-4-methyl-2,5-dihydro-thiazole were evaluated in a soft drink sample. An orange soda was used whose ingredients included carbonated water, high fructose corn syrup, citric acid, potassium benzoate, gum acacia, natural flavor, ester gum, yellow 6, brominated vegetable oil, and red 40.

Test [5] is described as follows: Flavor evaluation in a beef broth sample. To be noted: 4 ppb. Here is the method: The flavor properties of 2-ethyl-4-methyl-2,5-dihydro-thiazole were evaluated in a beef broth sample. The beef broth sample included beef broth and less than 1% of the following: salt, MSG, hydrolyzed corn protein, hydrolyzed soy protein, hydrolyzed wheat protein, dextrose, onion powder, autolyzed yeast extract, caramel color, partially hydrogenated soybean oil, natural flavor, thiamine hydrochloride, disodium inosinate, and disodium guanylate.

Test [6] is described as follows: Flavor evaluation in a dairy product sample (mixed berry yogurt). To be noted: 5 ppb. The protocol:
The flavor properties of 2-ethyl-4-methyl-2,5-dihydro-thiazole were evaluated in a dairy product sample. A mixed berry yogurt sample was used whose ingredients included cultured pasteurized grade A nonfat milk, high fructose corn syrup, modified corn starch, nonfat milk, kosher gelatin, corn starch, tricalcium phosphate, natural flavor, potassium sorbate added to maintain freshness, sucralose (splenda brand,) acesulfame potassium, colored with annatto extract, vitamin A acetate, and vitamin D3.

Each structure is given as a SMILES string. Entries after “also recorded” stand apart in the source; their conditions may differ.

As to `CCC1N=C(C)CS1` (stereo not shown) [Formula I, 2-ethyl-4-methyl-2,5-dihydro-thiazole], in test [1] (100 ppb), the “Flavor Profile” value is “Tropical, fruit, peach,; also recorded: slightly catty, and meaty; also recorded: Very strong”. Moreover, the “Flavor Intensity” value in test [1] (100 ppb) was 7.11. In addition, the “Flavor character, comparison with analogs” value in test [1] (summary of the panel results) was “unexpected strong and long-lasting fruity character; also recorded: superior to all other structurally closely related analogs”. In addition, the Flavor notes result in test [2] is “tropical fruit, catty, peach, and berry flavor notes”. Moreover, the Flavor effect result in test [3] (1 ppb) is “added faint sulfurous note and synergized with grain note”; in test [3] (5 ppb) it was “sulfurous and peach notes”; in test [4], “provided the feel of a tangerine soda and more natural taste and having cut the acidity”; in test [5] it was “boosted the roast note and imparted additional tropical note”; in test [6], “boosted the fruity note and imparted a peach note”.

In the case of `CCC1=NC(C)SC1` (stereo not shown) [Formula II, 4-Ethyl-2-methyl-2,5-dihydro-thiazole], in test [1] (1 ppm), the “Flavor Profile” value is “Nutty and cabbage”; the “Flavor Intensity” value is 1.

Turning to `CCCC1N=C(C)CS1` (stereo not shown) [Formula III, 4-Methyl-2-propyl-2,5-dihydro-thiazole], in test [1] (350 ppb), the “Flavor Profile” value was “Sulfury, nutty, and skunk; also recorded: Strong”; the “Flavor Intensity” value was found to be 3.33.
